Values quoted from earlier work in US20080107740A1, “Pharmaceutical composition comprising salmeterol and budesonide for the treatment of respiratory disorders” (GALEPHAR M/F, priority 2001, published 2008).

Legend:
[1] = inhaled, administered after or before inhaled corticosteroids
[2] = tested on: patients with reversible obstructive respiratory disease

OCc1cc(C(O)CNCCCCCCOCCCCc2ccccc2)ccc1O (stereo not shown) [Salmeterol]
tolerability [1]: well tolerated
onset of significant bronchodilation ([2]; after inhalation): within minutes
time to maximal bronchodilation ([2]; after inhalation): ≤ 2 h
duration of bronchodilation ([2]; inhalation, patients with reversible obstructive respiratory disease): up to 12 hours
